ChEMBL document CHEMBL1833881, “Synthesis of a new trifluoromethylketone analogue of l-arginine and contrasting inhibitory activity against human arginase I and histone deacetylase 8” (Bioorg Med Chem Lett, 2011)
Calls of active or inactive are those of the source. No cut-off for these calls is given here.

How the values were obtained:
[1] = molecular target: T1, Arginase-1 (Homo sapiens, UniProt P05089); experiment: (§1) Displacement of [14C-guanidino]-L-arginine from human recombinant full length arginase 1 expressed in Escherichia coli BL21(DE3) by fixed point assay
T1 sequence (P05089 whole entry): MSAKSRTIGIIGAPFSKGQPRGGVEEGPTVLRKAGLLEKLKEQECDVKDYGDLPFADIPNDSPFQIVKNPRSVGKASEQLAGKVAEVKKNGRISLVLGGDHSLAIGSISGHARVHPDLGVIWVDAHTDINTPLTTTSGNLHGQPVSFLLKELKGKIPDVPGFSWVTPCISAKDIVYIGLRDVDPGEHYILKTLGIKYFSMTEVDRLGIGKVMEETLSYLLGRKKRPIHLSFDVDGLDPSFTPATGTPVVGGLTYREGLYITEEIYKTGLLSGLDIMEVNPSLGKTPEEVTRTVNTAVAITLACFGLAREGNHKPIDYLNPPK

[2] = molecular target: Histone deacetylase 4 (Homo sapiens, UniProt P56524); experiment: Inhibition of human HDAC4 catalytic domain (residues Thr648-Thr1057) expressed in Escherichia coli BL21using fluorogenic substrate by fluorescence assay
Sequence of Histone deacetylase 4 (P56524 whole entry, the tested form may be a part): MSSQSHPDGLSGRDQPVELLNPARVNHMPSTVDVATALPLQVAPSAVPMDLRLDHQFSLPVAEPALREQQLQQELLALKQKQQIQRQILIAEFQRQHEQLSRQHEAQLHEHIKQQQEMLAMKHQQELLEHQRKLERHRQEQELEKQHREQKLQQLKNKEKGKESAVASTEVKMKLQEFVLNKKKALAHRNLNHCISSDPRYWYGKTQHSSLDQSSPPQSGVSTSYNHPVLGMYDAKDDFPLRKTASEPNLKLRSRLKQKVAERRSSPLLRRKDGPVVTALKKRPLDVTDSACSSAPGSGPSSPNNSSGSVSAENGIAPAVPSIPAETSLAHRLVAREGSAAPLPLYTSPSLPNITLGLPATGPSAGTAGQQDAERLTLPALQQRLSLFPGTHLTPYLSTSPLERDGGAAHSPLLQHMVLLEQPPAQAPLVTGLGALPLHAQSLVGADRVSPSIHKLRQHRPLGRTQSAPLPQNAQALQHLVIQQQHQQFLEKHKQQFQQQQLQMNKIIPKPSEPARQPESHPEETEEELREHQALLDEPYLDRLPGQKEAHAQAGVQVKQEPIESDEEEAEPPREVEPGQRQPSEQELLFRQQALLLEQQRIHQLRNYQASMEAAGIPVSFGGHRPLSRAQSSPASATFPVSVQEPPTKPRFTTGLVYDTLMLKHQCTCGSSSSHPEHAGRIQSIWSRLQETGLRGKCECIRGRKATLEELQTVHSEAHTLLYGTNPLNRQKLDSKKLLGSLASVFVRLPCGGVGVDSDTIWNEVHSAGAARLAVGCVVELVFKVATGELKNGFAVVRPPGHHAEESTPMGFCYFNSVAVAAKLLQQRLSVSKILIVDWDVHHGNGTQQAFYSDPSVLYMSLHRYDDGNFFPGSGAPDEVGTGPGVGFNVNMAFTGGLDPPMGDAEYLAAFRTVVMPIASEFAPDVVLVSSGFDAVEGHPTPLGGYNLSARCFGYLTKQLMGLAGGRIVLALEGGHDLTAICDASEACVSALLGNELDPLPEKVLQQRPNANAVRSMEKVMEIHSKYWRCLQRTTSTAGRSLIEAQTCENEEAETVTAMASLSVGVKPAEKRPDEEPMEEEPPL

[3] = Ratio of IC50 for Mycoplana ramosa acetylpolyamine amidohydrolase to IC50 for HDAC8
[4] = molecular target: T2, Arginase-1 (Homo sapiens) (UniProt P05089); experiment: as §1
T2 sequence (whole entry): T1 sequence (P05089 whole entry)

N[C@@H](CCCCC=O)C(=O)O
Kd [1]: 60 µM

O=C(c1ccc(C(=O)C(F)(F)F)s1)N1CCn2c(-c3ccccc3)cnc2C1
IC50 [2]: 0.367 µM

N[C@@H](CCCCC(=O)C(F)(F)F)C(=O)O
Ratio IC50 [3]: 73
inhibition [4]: inactive
